Laboratory results from ChEMBL document CHEMBL1128033, “Design and synthesis of new leads for PKC bisubstrate inhibitors” (Bioorg Med Chem Lett, 1994).

Assays:
Protein kinase C (PKC) = test: Inhibition of protein kinase C (PKC) using histone III S protein; type: protein assay
[1] = biological target: cAMP-dependent protein kinase (PKA) (Homo sapiens, UniProt P22694+P17612+P22612); test: Inhibition of c-AMP dependent kinase (PKA) using histone II A protein; type: protein assay

Structure (SMILES)	IC50 (Protein kinase C (PKC)) [µM]	IC50 [1] [µM]
NC(N)=NCCCC(N)C(=O)NCCNCCCCCNC1=C(c2cc3ccccc3[nH]2)C(=O)NC1=O (stereo not drawn)	8	210
NC(Cc1ccccc1)C(=O)NCCNCCCCCNC1=C(c2cc3ccccc3[nH]2)C(=O)NC1=O (stereo not drawn)	95	120
NC(CCC(=O)O)C(=O)NCCCCCNC1=C(c2cc3ccccc3[nH]2)C(=O)NC1=O (stereo not drawn)	105	390
C[C@H]1CNCCN1S(=O)(=O)c1cccc2cnccc12	6	–
NCCCCCCCNC1=C(c2cc3ccccc3[nH]2)C(=O)NC1=O	5	150
NCCCCCCNC1=C(c2cc3ccccc3[nH]2)C(=O)NC1=O	40	50
NC(Cc1ccccc1)C(=O)NCCCCCNC1=C(c2cc3ccccc3[nH]2)C(=O)NC1=O (stereo not drawn)	120	–
NC(N)=NCCCC(N)C(=O)NCCCCCNC1=C(c2cc3ccccc3[nH]2)C(=O)NC1=O (stereo not drawn)	60	–

Next, values leading:

IC50 (Protein kinase C (PKC)) [µM]	IC50 [1] [µM]	Structure (SMILES)
8	300	NCCCCCNC1=C(c2cc3ccccc3[nH]2)C(=O)NC1=O
120	310	NCCNCCNC1=C(c2cc3ccccc3[nH]2)C(=O)NC1=O
90	100	NCCNC1=C(c2cc3ccccc3[nH]2)C(=O)NC1=O
100	390	NCCCNCCCNC1=C(c2cc3ccccc3[nH]2)C(=O)NC1=O
110	> 500	NCCNCCCCCNC1=C(c2cc3ccccc3[nH]2)C(=O)NC1=O
